Reference: patent US11919901B2 (Syndax Pharmaceuticals, Inc., priority 2021, dated 2024)

Columns and labels:
hERG = hERG (Homo sapiens (Human), UniProt Q12809); experiment: Patch clamp assay (hERG tail currents, whole-cell); type: cell-based; conditions: hERG transfected HEK 293 cells; for hERG % Remaining 10 μM: 10 μM compound; for hERG % Remaining 30 μM: 30 μM compound
Menin-MLL = Menin-MLL (Homo sapiens (Human), UniProt O00255); experiment: Determination of binding constants (Ki) to Menin-MLL (HTRF); conditions: HTRF, 0.25 nM H-FL-Menin, 3.2 nM FITC-MLL-4-43, 24 hr incubation; for Ki: read-out: Menin-MLL Ki HTRF Assay: Ki
Sequence of Menin-MLL (O00255 whole entry): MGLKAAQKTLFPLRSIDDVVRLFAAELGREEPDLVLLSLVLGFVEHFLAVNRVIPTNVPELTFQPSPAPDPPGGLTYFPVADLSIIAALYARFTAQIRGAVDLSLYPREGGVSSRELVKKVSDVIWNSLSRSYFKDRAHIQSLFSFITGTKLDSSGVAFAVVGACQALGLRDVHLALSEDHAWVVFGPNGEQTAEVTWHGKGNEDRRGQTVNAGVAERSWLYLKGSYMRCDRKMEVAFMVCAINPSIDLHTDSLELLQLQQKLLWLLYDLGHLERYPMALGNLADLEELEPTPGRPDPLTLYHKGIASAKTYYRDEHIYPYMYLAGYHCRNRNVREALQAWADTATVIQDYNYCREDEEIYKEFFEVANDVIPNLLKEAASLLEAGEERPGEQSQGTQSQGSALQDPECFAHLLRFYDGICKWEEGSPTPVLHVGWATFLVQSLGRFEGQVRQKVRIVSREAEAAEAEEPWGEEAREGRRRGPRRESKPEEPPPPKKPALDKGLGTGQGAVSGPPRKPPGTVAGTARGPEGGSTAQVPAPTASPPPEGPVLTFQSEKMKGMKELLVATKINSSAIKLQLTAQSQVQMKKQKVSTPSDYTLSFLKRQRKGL

Sequence of hERG (Q12809 whole entry): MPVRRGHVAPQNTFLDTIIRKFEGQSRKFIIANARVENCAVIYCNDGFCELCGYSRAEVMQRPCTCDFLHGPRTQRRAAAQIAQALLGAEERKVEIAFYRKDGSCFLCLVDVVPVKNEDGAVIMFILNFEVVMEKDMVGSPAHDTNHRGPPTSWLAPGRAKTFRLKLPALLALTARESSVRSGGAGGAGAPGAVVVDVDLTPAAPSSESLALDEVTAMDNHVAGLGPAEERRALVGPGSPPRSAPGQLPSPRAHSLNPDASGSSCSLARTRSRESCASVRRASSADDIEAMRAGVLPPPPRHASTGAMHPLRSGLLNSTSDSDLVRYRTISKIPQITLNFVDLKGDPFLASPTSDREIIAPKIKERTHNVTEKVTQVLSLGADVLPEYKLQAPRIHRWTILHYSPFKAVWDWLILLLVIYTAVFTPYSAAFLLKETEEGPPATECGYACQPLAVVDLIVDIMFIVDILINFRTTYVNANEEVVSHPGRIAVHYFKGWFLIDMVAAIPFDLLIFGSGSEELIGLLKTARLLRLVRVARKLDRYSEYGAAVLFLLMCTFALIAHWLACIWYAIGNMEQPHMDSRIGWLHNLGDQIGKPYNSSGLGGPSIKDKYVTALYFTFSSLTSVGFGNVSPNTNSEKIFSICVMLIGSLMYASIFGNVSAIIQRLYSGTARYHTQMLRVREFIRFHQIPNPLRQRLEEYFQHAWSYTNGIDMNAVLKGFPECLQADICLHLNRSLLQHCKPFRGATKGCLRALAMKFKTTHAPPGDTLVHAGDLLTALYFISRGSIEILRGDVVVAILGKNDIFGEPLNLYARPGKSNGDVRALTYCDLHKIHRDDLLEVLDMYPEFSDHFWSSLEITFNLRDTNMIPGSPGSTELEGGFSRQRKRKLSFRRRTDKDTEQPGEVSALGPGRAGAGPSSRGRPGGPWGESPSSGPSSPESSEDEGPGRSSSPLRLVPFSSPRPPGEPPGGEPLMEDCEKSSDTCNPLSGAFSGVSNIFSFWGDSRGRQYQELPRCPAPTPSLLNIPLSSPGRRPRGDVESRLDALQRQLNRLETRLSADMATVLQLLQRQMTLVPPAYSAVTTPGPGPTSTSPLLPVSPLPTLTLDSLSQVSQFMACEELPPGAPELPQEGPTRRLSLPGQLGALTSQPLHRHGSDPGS

SMILES | hERG % Remaining 10 μM (hERG) | hERG % Remaining 30 μM (hERG) | IC50 (hERG) [nM] | EC50 (Menin-MLL) [nM] | Ki (Menin-MLL) [nM]
CC(C)N(CC(F)F)C(=O)c1cc(F)ccc1Oc1cncnc1N1CC2(CCN(C[C@@H]3CC[C@@H](NS(=O)(=O)N(C)C)CO3)CC2)C1 [Compound 95, N-(2,2-Difluoroethyl)-2-((4-(7-(((2S,5R)-5-((N,N-dimethylsulfamoyl)amino)tetrahydro-2H-pyran-2-yl)methyl)-2,7-diazaspiro[3.5]nonan-2-yl)pyrimidin-5-yl)oxy)-5-fluoro-N-isopropylbenzamide] | +++ (“+++” means ≥66%) | ++ (“++” means ≥33% and <66%) | < 25000 | < 50 | < 1
CCN(CC)S(=O)(=O)N[C@@H]1CC[C@@H](CN2CCC3(CC2)CN(c2ncncc2Oc2ccc(F)cc2C(=O)N(CC(F)F)C(C)C)C3)OC1 [Compound 97, 2-((4-(7-(((2S,5R)-5-((N,N-Diethylsulfamoyl)amino)tetrahydro-2H-pyran-2-yl)methyl)-2,7-diazaspiro[3.5]nonan-2-yl)pyrimidin-5-yl)oxy)-N-(2,2-difluoroethyl)-5-fluoro-N-isopropylbenzamide] | ++ (“++” means ≥33% and <66%) | + (“+” means <33%) | – | < 50 | < 1
CC(C)N(CC(F)F)C(=O)c1cc(F)ccc1Oc1cncnc1N1CC2(CCN(C[C@@H]3CC[C@@H](NS(=O)(=O)N4CCC4)CO3)CC2)C1 [Compound 99, 2-((4-(7-(((2S,5R)-5-(Azetidine-1-sulfonamido)tetrahydro-2H-pyran-2-yl)methyl)-2,7-diazaspiro[3.5]nonan-2-yl)pyrimidin-5-yl)oxy)-N-(2,2-difluoroethyl)-5-fluoro-N-isopropylbenzamide] | +++ (“+++” means ≥66%) | ++ (“++” means ≥33% and <66%) | – | – | < 1
CC(C)N(CC(F)F)C(=O)c1cc(F)ccc1Oc1cncnc1N1CC2(CCN(C[C@@H]3CC[C@@H](NS(=O)(=O)c4cnn(C)c4)CO3)CC2)C1 [Compound 100, N-(2,2-Difluoroethyl)-5-fluoro-N-isopropyl-2-((4-(7-(((2S,5R)-5-((1-methyl-1H-pyrazole)-4-sulfonamido)tetrahydro-2H-pyran-2-yl)methyl)-2,7-diazaspiro[3.5]nonan-2-yl)pyrimidin-5-yl)oxy)benzamide] | +++ (“+++” means ≥66%) | +++ (“+++” means ≥66%) | ≥ 50000 | – | < 1
CC(C)N(CC(F)F)C(=O)c1cc(F)ccc1Oc1cncnc1N1CC2(CCN(C[C@@H]3CC[C@@H](NS(=O)(=O)N(C)C(C)C)CO3)CC2)C1 [Compound 101, N-(2,2-Difluoroethyl)-5-fluoro-N-isopropyl-2-((4-(7-(((2S,5R)-5-((N-isopropyl-N-methylsulfamoyl)amino)tetrahydro-2H-pyran-2-yl)methyl)-2,7-diazaspiro[3.5]nonan-2-yl)pyrimidin-5-yl)oxy)benzamide] | – | + (“+” means <33%) | – | – | < 1
CNS(=O)(=O)N[C@@H]1CC[C@@H](CN2CCC3(CC2)CN(c2ncncc2Oc2ccc(F)cc2C(=O)N(CC(F)F)C(C)C)C3)OC1 [Compound 102, N-(2,2-Difluoroethyl)-5-fluoro-N-isopropyl-2-((4-(7-(((2S,5R)-5-((N-methylsulfamoyl)amino)tetrahydro-2H-pyran-2-yl)methyl)-2,7-diazaspiro[3.5]nonan-2-yl)pyrimidin-5-yl)oxy)benzamide] | – | +++ (“+++” means ≥66%) | ≥ 50000 | – | < 1
CC(C)N(CC(F)F)C(=O)c1cc(F)ccc1Oc1cncnc1N1CC2(CCN(C[C@@H]3CC[C@@H](NS(=O)(=O)c4ccn(C)n4)CO3)CC2)C1 [Compound 103, N-(2,2-Difluoroethyl)-5-fluoro-N-isopropyl-2-((4-(7-(((2S,5R)-5-((1-methyl-1H-pyrazole)-3-sulfonamido)tetrahydro-2H-pyran-2-yl)methyl)-2,7-diazaspiro[3.5]nonan-2-yl)pyrimidin-5-yl)oxy)benzamide] | – | +++ (“+++” means ≥66%) | – | – | < 1
Cc1c(S(=O)(=O)N[C@@H]2CC[C@@H](CN3CCC4(CC3)CN(c3ncncc3Oc3ccc(F)cc3C(=O)N(CC(F)F)C(C)C)C4)OC2)cnn1C [Compound 104, N-(2,2-Difluoroethyl)-2-((4-(7-(((2S,5R)-5-((1,5-dimethyl-1H-pyrazole)-4-sulfonamido)tetrahydro-2H-pyran-2-yl)methyl)-2,7-diazaspiro[3.5]nonan-2-yl)pyrimidin-5-yl)oxy)-5-fluoro-N-isopropylbenzamide] | – | +++ (“+++” means ≥66%) | – | – | < 1
Cc1nn(C)cc1S(=O)(=O)N[C@@H]1CC[C@@H](CN2CCC3(CC2)CN(c2ncncc2Oc2ccc(F)cc2C(=O)N(CC(F)F)C(C)C)C3)OC1 [Compound 105, N-(2,2-Difluoroethyl)-2-((4-(7-(((2S,5R)-5-((1,3-dimethyl-1H-pyrazole)-4-sulfonamido)tetrahydro-2H-pyran-2-yl)methyl)-2,7-diazaspiro[3.5]nonan-2-yl)pyrimidin-5-yl)oxy)-5-fluoro-N-isopropylbenzamide] | – | +++ (“+++” means ≥66%) | – | – | < 1
CC(C)N(CC(F)(F)F)C(=O)c1cc(F)ccc1Oc1cncnc1N1CC2(CCN(C[C@@H]3CC[C@@H](NS(=O)(=O)N(C)C)CO3)CC2)C1 [Compound 107, 2-((4-(7-(((2S,5R)-5-((N,N-Dimethylsulfamoyl)amino)tetrahydro-2H-pyran-2-yl)methyl)-2,7-diazaspiro[3.5]nonan-2-yl)pyrimidin-5-yl)oxy)-5-fluoro-N-isopropyl-N-(2,2,2-trifluoroethyl)benzamide] | +++ (“+++” means ≥66%) | ++ (“++” means ≥33% and <66%) | – | < 50 | < 1
CC(C)N(C(=O)c1cc(F)ccc1Oc1cncnc1N1CC2(CCN(C[C@@H]3CC[C@@H](NS(=O)(=O)C4CC4)CO3)CC2)C1)C1CC(F)(F)C1 [Compound 111, 2-((4-(7-(((2S,5R)-5-(Cyclopropanesulfonamido)tetrahydro-2H-pyran-2-yl)methyl)-2,7-diazaspiro[3.5]nonan-2-yl)pyrimidin-5-yl)oxy)-N-(3,3-difluorocyclobutyl)-5-fluoro-N-isopropylbenzamide] | ++ (“++” means ≥33% and <66%) | + (“+” means <33%) | – | < 50 | < 1
CC(C)N(C(=O)c1cc(F)ccc1Oc1cncnc1N1CC2(CCN(C[C@@H]3CC[C@@H](NS(=O)(=O)N(C)C)CO3)CC2)C1)C1CC(F)(F)C1 [Compound 113, N-(3,3-Difluorocyclobutyl)-2-((4-(7-(((2S,5R)-5-((N,N-dimethylsulfamoyl)amino)tetrahydro-2H-pyran-2-yl)methyl)-2,7-diazaspiro[3.5]nonan-2-yl)pyrimidin-5-yl)oxy)-5-fluoro-N-isopropylbenzamide] | +++ (“+++” means ≥66%) | ++ (“++” means ≥33% and <66%) | – | < 50 | < 1
CCN(CC)S(=O)(=O)N[C@@H]1CC[C@@H](CN2CCC3(CC2)CN(c2ncncc2Oc2ccc(F)cc2C(=O)N(C(C)C)C2CC(F)(F)C2)C3)OC1 [Compound 114, 2-((4-(7-(((2S,5R)-5-((N,N-Diethylsulfamoyl)amino)tetrahydro-2H-pyran-2-yl)methyl)-2,7-diazaspiro[3.5]nonan-2-yl)pyrimidin-5-yl)oxy)-N-(3,3-difluorocyclobutyl)-5-fluoro-N-isopropylbenzamide] | + (“+” means <33%) | + (“+” means <33%) | – | < 50 | < 1
CC(C)N(C(=O)c1cc(F)ccc1Oc1cncnc1N1CC2(CCN(C[C@@H]3CC[C@@H](NS(=O)(=O)N4CCC4)CO3)CC2)C1)C1CC(F)(F)C1 [Compound 118, 2-((4-(7-(((2S,5R)-5-(Azetidine-1-sulfonamido)tetrahydro-2H-pyran-2-yl)methyl)-2,7-diazaspiro[3.5]nonan-2-yl)pyrimidin-5-yl)oxy)-N-(3,3-difluorocyclobutyl)-5-fluoro-N-isopropylbenzamide] | ++ (“++” means ≥33% and <66%) | + (“+” means <33%) | – | – | < 1
CC(C)N(C(=O)c1cc(F)ccc1Oc1cncnc1N1CC2(CCN(C[C@@H]3CC[C@@H](NS(=O)(=O)N(C)C(C)C)CO3)CC2)C1)C1CC(F)(F)C1 [Compound 119, N-(3,3-Difluorocyclobutyl)-5-fluoro-N-isopropyl-2-((4-(7-(((2S,5R)-5-((N-isopropyl-N-methylsulfamoyl)amino)tetrahydro-2H-pyran-2-yl)methyl)-2,7-diazaspiro[3.5]nonan-2-yl)pyrimidin-5-yl)oxy)benzamide] | – | + (“+” means <33%) | – | – | < 1
C[C@@H]1COC[C@@H](C)N1C(=O)c1cc(F)ccc1Oc1cncnc1N1CC2(CCN(C[C@@H]3CC[C@@H](NS(=O)(=O)c4ccccc4)CO3)CC2)C1 [Compound 120, N-((3R,6S)-6-((2-(5-(2-((3R,5R)-3,5-Dimethylmorpholine-4-carbonyl)-4-fluorophenoxy)pyrimidin-4-yl)-2,7-diazaspiro[3.5]nonan-7-yl)methyl)tetrahydro-2H-pyran-3-yl)benzenesulfonamide] | +++ (“+++” means ≥66%) | ++ (“++” means ≥33% and <66%) | – | < 50 | < 1
C[C@@H]1COC[C@@H](C)N1C(=O)c1cc(F)ccc1Oc1cncnc1N1CC2(CCN(C[C@@H]3CC[C@@H](NS(=O)(=O)N4CCC4)CO3)CC2)C1 [Compound 121, N-((3R,6S)-6-((2-(5-(2-((3R,5R)-3,5-Dimethylmorpholine-4-carbonyl)-4-fluorophenoxy)pyrimidin-4-yl)-2,7-diazaspiro[3.5]nonan-7-yl)methyl)tetrahydro-2H-pyran-3-yl)azetidine-1-sulfonamide] | – | +++ (“+++” means ≥66%) | – | – | < 1
